According to article PMC6891598, “Application of N-Dodecyl L-Peptide to Enhance Serum Stability while Maintaining Inhibitory Effects on Myometrial Contractions Ex Vivo” (Molecules, 2019):
pIC50: −log10 of the molar value. Entries after “also recorded” stand apart in the source; their conditions may differ. Residues, ends and D or L forms follow the SMILES beside them.

Columns and labels:
[1] = tested on: murine myometrial tissue (PGF2α-induced contractions; FP); test: ex vivo mouse myometrial tissue contraction assay (PGF2α-induced); set-up: species or system mouse (CD-1); conditions: post-partum CD-1 mouse myometrial strips, Krebs buffer pH 7.4, 37 °C, 20 min pretreatment with peptide at two concentrations, then PGF2α; 4–6 experiments per group, means ± SEM, t-test, p < 0.05 vs vehicle
Procedure: (§1) All the peptides were initially tested in an ex vivo mouse myometrial tissue contraction assay. Contractile activity was measured on tissue that was harvested post-partum and treated with prostaglandin F2α (PGFα) alone (control) or in the presence of peptides L-4b-4g, L-7, and L-8. […] Mean tension induced by KCl (as a positive control) was not affected by L-4d.
Pregnant CD-1 mice (16-17 days gestation, term 19 days) were obtained from Charles River Inc. and used according to a protocol of the Animal Care Committee of Hôpital Sainte-Justine according to the principles of the Guide for the Care and Use of Experimental Animals of the Canadian Council on Animal Care. The animals were maintained on standard laboratory chow under a 12:12 light:dark cycle and allowed free access to chow and water.
(§2) The uterus from the CD-1 mouse was obtained from the animal immediately after term delivery under anesthesia (2.5% isoflurane). Briefly, a midline abdominal incision was made and the uterine horns were rapidly excised, cleansed carefully of the surrounding connective tissues, and removed. Longitudinal myometrial strips (2 to 3 mm wide and 1 cm long) were dissected free from the uterus and mounted isometrically in organ tissue baths. The initial tension was set at 2 g. The tissue baths contained 20 mL of Krebs buffer of the following composition (in mM): 118 NaCl, 4.7 KCl, 2.5 CaCl2, 0.9 MgSO4, 1 KH2PO4, 11.1 glucose, and 23 NaHCO3 (pH 7.4). The buffer was equilibrated with 95% oxygen/5% carbon dioxide at 37 °C. Isometric tension was measured by a force transducer and recorded by a BIOPAC data acquisition system (BIOPAC MP150, Montreal, PQ, Canada). Experiments were begun after 1 h equilibration. Mean tension of spontaneous contractions was measured using a BIOPAC digital polygraph system (AcqKnowledge); the same parameters were also determined after addition of PGF2α in the presence or the absence of a 20 min-pretreatment with different FP inhibitors. At the start of each experiment, mean tension of spontaneous myometrial contractions was considered as a reference response. Changes in mean tension (g) were expressed as percentages of the initial reference response (% of baseline).
At the start of each experiments, mean tension of spontaneous myometrial contractions was considered as a reference response. Increase in mean tension (%) was expressed as percentages of (X/Y)-100, where X is the change in mean tension (g) induced by PGF2α and Y is the initial reference response (g). Data are representative of 4–6 experiments per treated group. All results are expressed as means ± SEM and were compared by Independent t-tests. Statistical tests were performed with GraphPad Prism 4.3 software and p < 0.05 was considered statistically significant.

[2] = tested on: murine myometrial tissue (KCl-induced tension); test: mean tension induced by KCl (positive control) in mouse myometrial tissue; set-up: species or system mouse (CD-1); conditions: post-partum mouse myometrial tissue
Procedure: as §1
as §2, with “The tissue baths contained 20 mL of Krebs buffer of the following composition (in mM): 118 NaCl, 4.7 KCl, 2.5 CaCl2, 0.9 MgSO4, 1 KH2PO4, 11.1 glucose, and 23 NaHCO3 (pH 7.4). The buffer was equilibrated with 95% oxygen/5% carbon dioxide at 37 °C.” left out, “Experiments were begun after 1 h equilibration.” left out, “At the start of each experiment, mean tension of spontaneous myometrial contractions was considered as a reference response.” left out

[3] = serum stability study (mouse serum/plasma, MS/MS); type: in vitro ADME; conditions: mouse plasma (method: serum), 37 °C, incubation up to 2 hours, LC-MS/MS, internal standard L-4f
Procedure: Peptide L-4d was further examined for stability in serum and compared to L-PDC31. The two peptides were incubated at 37 °C in mouse plasma. Aliquots were removed at different time intervals and analyzed by mass spectrometry (MS/MS) to detect remaining amount of peptide (Figure 3).
Serum was […] and kept on ice throughout the procedure. Two blanks were prepared by adding 5 µL of DMSO to 95 µL of serum. These were incubated for 2 h and submitted to the same treatment as the other samples. Two series of vials containing 95 µL of serum were prepared and spiked with either 5 µL of L-PDC31 [0.4 mM] or L-4d [0.4 mM], and incubated for 120, 60, 30, 15, 10 and 5 min, respectively, after which 100 µL of 4% phosphoric acid was added. Two vials were also spiked with 5 µL L-PDC31 and L-4d, respectively, and immediately treated with phosphoric acid (time = 0 min). The vials were incubated for 5 min at 95 °C, cooled on ice for 2 min, treated with 600 µL of cold MeCN containing L-4f (0.02 mM) as internal standard, and incubated at –20 °C overnight. After the incubation period, the vials were vortexed for 2 min and centrifuged at 4 °C for 15 min. The supernatant was transferred into LC-MS vials and analyzed.
Results were expressed as: (AN/IS/AN0/IS0)∗100
AN and IS refer, respectively, to the analyte and internal standard MS signals. Both values are compared with initial injection at which time AN0 and IS0 were not incubated.

[4] = tested on: LPS-induced preterm delivery in pregnant CD-1 mice; test: LPS-induced mouse preterm birth (PTB) model; type: in vivo, mouse (CD-1); conditions: gestational day 16, LPS 10 μg/animal i.p., L-4d 20 mg/day/animal by s.c. osmotic pump after 0.1 mg/animal i.p. bolus, n = 5 (saline n = 4)
Procedure: (§3) The ability of peptide L-4d to delay labor in vivo was next tested in mice near term and treated with lipopolysaccharide (LPS) Escherichia coli endotoxin, as a pathogen associated molecular pattern, which is known to promote a general inflammatory state resulting in prostaglandin synthesis and induced premature delivery. Following LPS injection into mice (n = 4–5) at gestational day 16, all the animals tested delivered within 12−24 h.
Timed-pregnant CD-1 mice at 16 days gestation (normal term is 19.2 days) were anesthetized with isoflurane (2%). Primed osmotic pumps (Alzet pump, Alzet, Cupertino, CA) containing either saline (n = 4) or compound L-4d (20 mg/day/animal, n = 5) were respectively subcutaneously implanted on the backs of the animals; infusion of peptide was immediately preceded by bolus injection of peptide (0.1 mg/animal intraperitoneally). Within 15 min after placement of the pumps, animals were injected with lipopolysaccharide (LPS) Escherichia coli endotoxin (10 μg/animal intraperitoneally) to mimic the inflammatory/infectious component of human preterm labor. Animals were inspected every hour for the first 18 h and every 2 h thereafter to document the timing of birth. Results are expressed as percentages of animals delivered following the injection of LPS [57]. […]

[5] = tested on: LPS-induced preterm delivery in pregnant CD-1 mice; conditions: cited from earlier work
Procedure: as §3

[6] = tested on: intrauterine pressure and pain in women with primary dysmenorrhea; conditions: phase Ib; cited from earlier work
Description: The prostaglandin F2α receptor (FP) is a promising target for delaying labor because of its relevant involvement in parturition. At the beginning of labor and preterm labor, FP expression increases. […] Targeting FP, the tocolytic prototype PDC31 is currently undergoing clinical trials.

[7] = tested on: murine myometrial tissue (PGF2α-induced contractions; FP); conditions: cited from earlier work
Description: Moreover, addition of the dodecyl chain enhanced plasma stability.

[8] = tested on: prostaglandin F2α receptor (FP); conditions: FP inhibition, cited from earlier work
Procedure: The development of PDC31 originated from a library of sequences based on the second extracellular loop of FP. Short lead peptides were analyzed initially using in vitro and ex vivo analyses. […] Moreover, addition of the dodecyl chain enhanced plasma stability.

Molecule | effect on PGF2α-induced contractions (mean tension) of myometrial tissue [1] | effect on mean tension induced by KCl (positive control) [2] | stability in mouse plasma, in words [3] | ability to delay labor (time of delivery) in LPS-induced PTB model [4] | ability to delay labor in the PTB model [5] | safety and effect on intrauterine pressure and pain [6] | effect on spontaneous and PGF2α-induced contractions in postpartum mice myometrium [7] | efficacy [8] | pIC50 ([8]; read-out: potency (IC50))
CCCCCCCCCCCCN[C@H](C(=O)N[C@@H](CC(C)C)C(=O)NCC(=O)N[C@@H](Cc1c[nH]cn1)C(=O)N[C@@H](CCCNC(N)=O)C(=O)N[C@@H](CC(=O)O)C(=O)N[C@@H](Cc1ccc(O)cc1)C(=O)N[C@@H](CCCCN)C(=O)O)[C@@H](C)CC [L-4d, N-Dodecyl-Ile-Leu-Gly-His-Cit-Asp-Tyr-Lys-OH] (HELM PEPTIDE1{[CCCCCCCCCCCCN[C@H](C(=O)[*:2])[C@@H](C)CC].L.G.H.[Cit].D.Y.K}$$$$V2.0) | significant reduction of contractions; also recorded: able to reduce uterine contractions induced by PGF2α; also recorded: significant reduction of PGF2α-induced contractility | not affected | still present after 2 hours of incubation | unable to exhibit a statistically significant reduction in the time of delivery; also recorded: failed to prolong labor in vivo; also recorded: inactive in vivo; also recorded: no significant ability to delay labor | – | – | – | – | –
H-ile-leu-Gly-his-cit-asp-tyr-lys-OH [PDC31] | – | – | – | – | delay labor | safe in reducing intrauterine pressure and pain associated with excessive uterine contractility | reduce both the strength and length of spontaneous and PGF2α-induced contractions | > 85% | 7.89
